These results are taken from patent US20030008903A1, “R-lansoprazole compositions and methods” (Sepracor Inc., priority 1998, published 2003).

The conditions of data set [1]: humans; cited from earlier work.
In a further data set the test system is gastric acid secretion. The following applies: humans; cited from earlier work.
Data set [2] deals with hepatic drug metabolizing enzyme systems. Particulars: compared with omeprazole; cited from earlier work.
The subject of the next data set is serum gastrin. The following applies: humans, on administration of racemic lansoprazole; cited from earlier work.
For data set [3] the following is noted: human, in vivo. From the text: Utilizing the optically pure or substantially optically pure isomer of (+) lansoprazole results in enhanced efficacy, diminished adverse effects, and accordingly, an improved therapeutic index. […] It is therefore, more desirable to use the (+) isomer of lansoprazole than to administer the racemic mixture because predictability of an effective and safe dose for an individual patient is greater.

In the next data set the test system is canine parietal cells. Particulars: isolated canine parietal cells; (+) versus (−) enantiomer; Nagaya et al.; cited from earlier work.

On to `Cc1c(OCC(F)(F)F)ccnc1C[S+]([O-])c1nc2ccccc2[nH]1` (racemic) [racemic lansoprazole, 2-[3-methyl-4-(2,2,2-trifluoroethoxy)pyrid-2-yl]methylsulfinyl-benzimidazole], for which, in data set [1], the serum half-life entry was “about 1.5 hours”. In the data set with gastric acid secretion, the “duration of the acid inhibitory effect” value is recorded as “about 24 hours”. In data set [2], the “effects on hepatic drug metabolizing enzyme systems” value was “comparable to omeprazole”. Moreover, the “fasting serum gastrin levels” value in the data set on serum gastrin is reported as “significantly elevated”.
Consider `Cc1c(OCC(F)(F)F)ccnc1C[S@@+]([O-])c1nc2ccccc2[nH]1` (single isomer, unassigned) [R(+) lansoprazole, (+) isomer of 2-[3-methyl-4-(2,2,2-trifluoroethoxy)pyrid-2-yl]methylsulfinyl-benzimidazole], for which, in data set [3], the half-life entry is reported as “longer half-life”; the “variation in the patient population between good metabolizers and poor metabolizers” value is “less variation”. Moreover, the “effects on acid formation stimulated by db-cAMP” value in the data set on canine parietal cells is recorded as “almost identical”.
With `Cc1c(OCC(F)(F)F)ccnc1C[S+]([O-])c1nc2ccccc2[nH]1` (stereo not drawn) [S(−) lansoprazole], the “effects on acid formation stimulated by db-cAMP” value in the data set on canine parietal cells is “almost identical”.
